Results reported in patent US8410153B2, “Naphthalene isoxazoline invertebrate pest control agents” (E.I. du Pont de Nemours and Company, priority 2007, dated 2013).

What was measured:
Format in all cases: in vivo
[1] = test system: diamondback moth (Plutella xylostella); test: Test A: control of diamondback moth on radish plant, foliar spray; conditions: sprayed at 50 ppm, held 6 days
Excerpt: For evaluating control of diamondback moth (Plutella xylostella) the test unit consisted of a small open container with a 12-14-day-old radish plant inside. This was pre-infested with about 50 neonate larvae that were dispensed into the test unit via corncob grits using a bazooka inoculator. The larvae moved onto the test plant after being dispensed into the test unit.
(§1) Test compounds were formulated using a solution containing 10% acetone, 90% water and 300 ppm X-77™ Spreader Lo-Foam Formula non-ionic surfactant containing alkylarylpolyoxyethylene, free fatty acids, glycols and isopropanol (Loveland Industries, Inc. Greeley, Colo., USA). The formulated compounds were applied in 1 mL of liquid through a SUJ2 atomizer nozzle with ⅛ JJ custom body (Spraying Systems Co. Wheaton, Ill., USA) positioned 1.27 cm (0.5 inches) above the top of each test unit. All experimental compounds in these tests were sprayed at 50 ppm, and the test was replicated three times. After spraying of the formulated test compound, each test unit was allowed to dry for 1 h and then a black, screened cap was placed on top. The test units were held for 6 days in a growth chamber at 25° C. and 70% relative humidity. Plant feeding damage was then visually assessed based on foliage consumed, and a pest mortality rating was also counted and calculated for each test unit.

[2] = test system: fall armyworm (Spodoptera frugiperda); test: Test B: control of fall armyworm on corn (maize) plant, foliar spray; conditions: sprayed at 50 ppm
Experimental: as §1
For evaluating control of fall armyworm (Spodoptera frugiperda) the test unit consisted of a small open container with a 4-5-day-old corn (maize) plant inside. This was pre-infested (using a core sampler) with 10-15 1-day-old larvae on a piece of insect diet. Test compounds were formulated and sprayed at 50 ppm as described for Test A and replicated three times. After spraying, the test units were maintained in a growth chamber and then the control efficacy was rated for each test unit as described for Test A.

[3] = test system: western flower thrips (Frankliniella occidentalis); test: Test E: control of western flower thrips on Soleil bean plant, contact and/or systemic; conditions: sprayed at 50 ppm; held 6 days
Experimental: as §1
For evaluating control of the western flower thrips (Frankliniella occidentalis) through contact and/or systemic means, the test unit consisted of a small open container with a 5-7-day-old Soleil Bean plant inside. Test compounds were formulated and sprayed as described for Test A. All experimental compounds in these tests were sprayed at 250 or 50 ppm as noted, and the test was replicated three times. After spraying, the test units were allowed to dry for 1 h, 22-27 adult thrips were added to each unit and then a black, screened cap was placed on top. The test units were held for 6 days at 25° C. and 45-55% relative humidity. A mortality rating was assessed along with a plant damage rating for each test unit.

SMILES	levels of control efficacy (20% or less feeding damage or 80% or more mortality) [1]	levels of control efficacy (20% or less feeding damage or 80% or more mortality) [2]	levels of control efficacy (20% or less feeding damage or 80% or more mortality) [3]
CC(O)(CNC(=O)c1ccc(C2=NOC(c3cccc(C(F)(F)F)c3)(C(F)(F)F)C2)c2ccccc12)C(F)(F)F (mixture of isomers) [Compound 45]	very good to excellent	very good to excellent	–
CCC(CO)NC(=O)c1ccc(C2=NOC(c3cccc(C(F)(F)F)c3)(C(F)(F)F)C2)c2ccccc12 (mixture of isomers) [Compound 46]	very good to excellent	very good to excellent	–
CNC(=O)C(C)NC(=O)c1ccc(C2=NOC(c3cc(Cl)cc(C(F)(F)F)c3)(C(F)(F)F)C2)c2ccccc12 (mixture of isomers) [Compound 125]	–	very good to excellent	–
CCNC(=O)C(C)NC(=O)c1ccc(C2=NOC(c3cc(Cl)cc(C(F)(F)F)c3)(C(F)(F)F)C2)c2ccccc12 (mixture of isomers) [Compound 126]	–	very good to excellent	–
CC(NC(=O)c1ccc(C2=NOC(c3cc(Cl)cc(C(F)(F)F)c3)(C(F)(F)F)C2)c2ccccc12)C(=O)NCC(F)(F)F (mixture of isomers) [Compound 127]	–	very good to excellent	–
CC(C)NC(=O)C(C)NC(=O)c1ccc(C2=NOC(c3cc(Cl)cc(C(F)(F)F)c3)(C(F)(F)F)C2)c2ccccc12 (mixture of isomers) [Compound 128]	–	very good to excellent	–
CCCNC(=O)C(C)NC(=O)c1ccc(C2=NOC(c3cc(Cl)cc(C(F)(F)F)c3)(C(F)(F)F)C2)c2ccccc12 (mixture of isomers) [Compound 129]	–	very good to excellent	–
CC(C)CNC(=O)C(C)NC(=O)c1ccc(C2=NOC(c3cc(Cl)cc(C(F)(F)F)c3)(C(F)(F)F)C2)c2ccccc12 (mixture of isomers) [Compound 130]	–	very good to excellent	–
CC(C)SCCNC(=O)c1ccc(C2=NOC(c3cccc(C(F)(F)F)c3)(C(F)(F)F)C2)c2ccccc12 (racemic) [Compound 55]	very good to excellent	very good to excellent	–
CC(C)SCCCNC(=O)c1ccc(C2=NOC(c3cccc(C(F)(F)F)c3)(C(F)(F)F)C2)c2ccccc12 (racemic) [Compound 56]	very good to excellent	very good to excellent	–
O=C(CNC(=O)c1ccc(C2=NOC(c3cc(Cl)cc(Cl)c3)(C(F)(F)F)C2)c2ccccc12)NCCCl (stereo not shown) [Compound 10]	very good to excellent	very good to excellent	–
O=C(CNC(=O)c1ccc(C2=NOC(c3cc(Cl)cc(Cl)c3)(C(F)(F)F)C2)c2ccccc12)NCC(F)(F)C(F)(F)C(F)(F)F (stereo not shown) [Compound 13]	very good to excellent	very good to excellent	–
O=C(CNC(=O)c1ccc(C2=NOC(c3cc(Cl)cc(Cl)c3)(C(F)(F)F)C2)c2ccccc12)NCC(F)(F)C(F)(F)F (stereo not shown) [Compound 14]	very good to excellent	very good to excellent	–
CCC(O)CNC(=O)c1ccc(C2=NOC(c3cccc(C(F)(F)F)c3)(C(F)(F)F)C2)c2ccccc12 (stereo not shown) [Compound 64]	very good to excellent	very good to excellent	–
CC(CO)NC(=O)c1ccc(C2=NOC(c3cc(C(F)(F)F)cc(C(F)(F)F)c3)(C(F)(F)F)C2)c2ccccc12 (stereo not shown) [Compound 68]	very good to excellent	very good to excellent	–
O=C(NCCO)c1ccc(C2=NOC(c3cc(C(F)(F)F)cc(C(F)(F)F)c3)(C(F)(F)F)C2)c2ccccc12 (stereo not shown) [Compound 69]	very good to excellent	very good to excellent	–
O=C(CNC(=O)c1ccc(C2=NOC(c3cccc(Br)c3)(C(F)(F)F)C2)c2ccccc12)NCC(F)(F)F (stereo not shown) [Compound 70]	very good to excellent	very good to excellent	–
CSCCNC(=O)c1ccc(C2=NOC(c3cccc(OC(F)(F)F)c3)(C(F)(F)F)C2)c2ccccc12 (stereo not shown) [Compound 71]	very good to excellent	very good to excellent	–
O=C(CNC(=O)c1ccc(C2=NOC(c3cccc(OC(F)(F)F)c3)(C(F)(F)F)C2)c2ccccc12)NCC(F)(F)F (stereo not shown) [Compound 72]	very good to excellent	very good to excellent	–
O=C(NCO)c1ccc(C2=NOC(c3cc(Cl)cc(Cl)c3)(C(F)(F)F)C2)c2ccccc12 (stereo not shown) [Compound 82]	very good to excellent	very good to excellent	–
CCCNC(=O)C(C)NC(=O)c1ccc(C2=NOC(c3cc(C(F)(F)F)cc(C(F)(F)F)c3)(C(F)(F)F)C2)c2ccccc12 (stereo not shown) [Compound 89]	–	very good to excellent	–
CC(NC(=O)CNC(=O)c1ccc(C2=NOC(c3cc(C(F)(F)F)cc(C(F)(F)F)c3)(C(F)(F)F)C2)c2ccccc12)C(F)(F)F (stereo not shown) [Compound 91]	–	very good to excellent	very good to excellent
CC(NC(=O)CNC(=O)c1ccc(C2=NOC(c3cc(Cl)cc(C(F)(F)F)c3)(C(F)(F)F)C2)c2ccccc12)C(F)(F)F (stereo not shown) [Compound 113]	very good to excellent	very good to excellent	–
C[S+]([O-])CCNC(=O)c1ccc(C2=NOC(c3cc(Cl)cc(C(F)(F)F)c3)(C(F)(F)F)C2)c2ccccc12 (stereo not shown) [Compound 114]	very good to excellent	very good to excellent	–
CC(NC(=O)c1ccc(C2=NOC(c3cc(Cl)cc(C(F)(F)F)c3)(C(F)(F)F)C2)c2ccccc12)C(=O)NC(C)C(F)(F)F (stereo not shown) [Compound 115]	very good to excellent	very good to excellent	–
